Legend:
muscarine M1 receptor = muscarine M1 receptor (Homo sapiens, UniProt P11229); assay: SafetyScreen44 binding; settings: substantial = higher than 50%
[1] = tested on: DNFB-induced persistent itch behavior of mice; assay: DNFB model of persistent itch (allergic contact dermatitis); format: in vivo; settings: i.p. after the second DNFB exposure, vs vehicle
Method: Furthermore, the effect of Compound 6 in chronic itch was examined in a model of allergic contact dermatitis^31. In brief, the fur on the dorsolateral aspect of the neck was shaved under brief isoflurane anesthesia. Three to four days thereafter, the shaved skin area was painted with 100 μL of 0.15% 2,4-dinitrofluorobenzene (DNFB) in acetone/olive oil (3:1). After 10-11 days, the skin was shaved again and the DNFB solution was painted 3-4 days thereafter (i.e., two painting sessions 14 days apart). Ninety minutes after the second painting, mice were habituated for 15 min in separate plexiglass cylinders (30 cm diameter).
Compounds or vehicle (10% 2-hydroxypropyl-β-cyclodextrine in 0.9% saline) were i.p. administered, and 15 min thereafter spontaneous scratching was recorded over 30 min by videotaping (FIG. 10A).

IB4-binding DRG neurons = assay: Whole-cell current-clamp recordings on IB4-binding DRG neurons; format: cell-based, mice; settings: 50 μM
Method: A DRG neuron primary cell culture was prepared and stimulated with an inflammatory soup overnight to induce hyperexcitability. In brief, naïve C57BL/6N mice (age 4-8 weeks) were killed by CO2 inhalation and lumbar (L1-L5) DRGs were transferred to hanks' balanced salt solution (Gibco, Thermo Fisher Scientific). After incubation with 500 U/mL collagenase IV and 2.5 U/ml dispase II (both from Sigma Aldrich) for 60 min, including carefully shaking every 20 min, DRGs were washed and gently triturated twice with a fire-polished Pasteur pipette in neurobasal medium (Gibco, Thermo Fisher Scientific) including 10% FBS and 0.5 mM GlutMax (Gibco, Thermo Fisher Scientific). Dissociated DRGs were seeded onto poly-D-lysine-coated (100 μg/mL) coverslips and cultured in neurobasal medium supplemented with 2% B27 (Gibco, Thermo Fisher Scientific), 1% penicillin/streptomycin and 0.5 mM GlutMax in 5% CO2 at 37° C.
In order to simulate a pathological state, DRG neuronal cultures were incubated with an inflammatory soup (histamine: 10 μM, PGE2: 10 μM, serotonin: 10 μM, bradykinin: 10 μM)^33 overnight and performed recordings on cells that bind isolectin B4, a marker of nonpeptidergic C-fiber neurons including the itch-sensitive neuronal populations (NP1-NP3)^4 in mice. Before recording, DRG neurons were preincubated with 10 μg/mL FITC-conjugated IB4 (Sigma-Aldrich) for 5-10 min to select for Slack-expressing neurons.
Whole-cell current clamp recordings were obtained using an EPC 9 amplifier combined with Patchmaster software (HEKA Electronics, Lambrecht/Pfalz, Germany). General settings, pipette and extracellular solutions were used as described above. Evoked action potentials (AP) were elicited by 10 ms current injections starting at 0 pA in 20 pA increments to determine electrophysiological parameters. Action potential (AP) firing was induced by depolarizing current pulses (200-950 pA at 150 pA intervals, 1000 ms duration). […] Number of APs before and after compound application were counted at the same current injection step.

[2] = injection of small currents (0-220 pA)

muscarine M1 receptor, sequence (P11229 whole entry): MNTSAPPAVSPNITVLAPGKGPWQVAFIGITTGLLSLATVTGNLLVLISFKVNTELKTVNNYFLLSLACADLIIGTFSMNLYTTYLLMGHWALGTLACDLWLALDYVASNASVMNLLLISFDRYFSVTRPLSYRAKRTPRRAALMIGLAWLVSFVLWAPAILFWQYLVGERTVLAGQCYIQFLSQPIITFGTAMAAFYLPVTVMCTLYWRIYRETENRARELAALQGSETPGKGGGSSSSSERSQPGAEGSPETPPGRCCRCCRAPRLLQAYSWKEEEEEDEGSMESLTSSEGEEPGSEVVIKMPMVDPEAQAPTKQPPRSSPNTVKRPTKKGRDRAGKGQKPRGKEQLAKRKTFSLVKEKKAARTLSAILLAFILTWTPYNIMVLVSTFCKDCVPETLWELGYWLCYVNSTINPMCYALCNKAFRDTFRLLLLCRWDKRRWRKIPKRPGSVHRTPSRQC

| SMILES | inhibition at 10 µM (muscarine M1 receptor) | number of head shakes, DNFB model [1] | number of scratching bouts, DNFB model [1] | number of AP fired (IB4-binding DRG neurons; current injections 200-950 pA, inflammatory soup overnight) | AP amplitude (IB4-binding DRG neurons; [2]) | rheobase (IB4-binding DRG neurons; [2]) |
| --- | --- | --- | --- | --- | --- | --- |
| CN1CCN(C2=Nc3ccccc3Oc3ccc(Cl)cc32)CC1 [Loxapine, 2-chloro-11-(4-methylpiperazin-1-yl)dibenzo[b,f][1,4]oxazepine, reference compound] | > 50% |  |  |  |  |  |
| O=C(O)COCCN1CCN(C2=Nc3ccccc3Oc3ccc(Cl)cc32)CC1 [Compound 6, 2-(2-(4-(2-Chlorodibenzo[b,f][1,4]oxazepin-11-yl)piperazin-1-yl)ethoxy) acetic acid] |  | significantly inhibited | significantly inhibited | profound decrease | significantly lower | significantly increased |

Source: US20260258003A1, “SLACK-ACTIVATING COMPOUNDS AND THEIR MEDICAL USE” (Johann Wolfgang Goethe-Universität Frankfurt am Main, priority 2023, published 2026)
